Laboratory results published in US20260317309A1, “N-HETEROCYLIC GPCR RECEPTOR AGONISTS, PHARMACEUTICAL COMPOSITIONS COMPRISING THE SAME, AND METHODS FOR THEIR USE” (Carmot Therapeutics, Inc., priority 2022, published 2026).

Target: T1, human GLP-1 receptor (Homo sapiens, UniProt P43220)
T1 construct: expressed in transfected cells
Assay: GLP-1R cAMP assay (cAMP accumulation in CHO cells stably overexpressing the human GLP-1 receptor, HitHunter kit)
Format: cell-based
Details: CHO cells stably overexpressing human GLP-1R, 30 min, 20-point dose response in triplicate
Procedure, shortened: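 CHO cells stably expressing the human receptor (10,000/well) in HBSS with 10 mM HEPES and 625 μM IBMX, given compound as a 20-point dose response in triplicate for 30 min. cAMP was read by luminescent enzyme-complementation detection after overnight incubation, and EC50 was fitted from dose-response curves.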

T1 sequence (P43220 24-463): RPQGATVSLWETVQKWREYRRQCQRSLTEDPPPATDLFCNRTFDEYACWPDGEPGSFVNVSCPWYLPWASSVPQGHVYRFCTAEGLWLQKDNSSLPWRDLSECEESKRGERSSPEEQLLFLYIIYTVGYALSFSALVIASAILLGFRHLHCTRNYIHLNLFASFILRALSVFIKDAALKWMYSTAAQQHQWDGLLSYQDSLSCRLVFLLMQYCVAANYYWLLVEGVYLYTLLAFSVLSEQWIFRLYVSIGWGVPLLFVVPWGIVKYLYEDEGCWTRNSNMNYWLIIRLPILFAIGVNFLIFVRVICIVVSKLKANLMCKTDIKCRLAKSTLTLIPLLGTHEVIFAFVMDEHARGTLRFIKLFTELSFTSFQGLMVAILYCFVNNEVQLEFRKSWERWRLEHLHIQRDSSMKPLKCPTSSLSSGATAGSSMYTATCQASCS

Structure (SMILES) | EC50
N#CC[C@H]1C[C@@H](Oc2ccnc(COc3ccc(F)cc3Cl)n2)CCN1Cc1nc2ccc(C(=O)O)cc2n1C[C@@H]1CCO1 [Compound 557, 2-{[(2S,4S)-4-({2-[(2-Chloro-4-fluorophenoxy)methyl]pyrimidin-4-yl}oxy)-2-(cyanomethyl)piperidin-1-yl]methyl}-1-{[(2S)-oxetan-2-yl]methyl}-1H-1,3-benzodiazole-6-carboxylic acid] | 1 to 10 nM
CC[C@@H]1C[C@H](Oc2ccnc(COc3ncc(Cl)cc3F)n2)CCN1Cc1nc2ccc(C(=O)O)cc2n1C[C@@H]1CCO1 [Compound 609, 2-{[(2R,4R)-4-[(2-{[(5-Chloro-3-fluoropyridin-2-yl)oxy]methyl}pyrimidin-4-yl)oxy]-2-ethylpiperidin-1-yl]methyl}-1-[(oxetan-2-yl)methyl]-1H-1,3-benzodiazole-6-carboxylic acid] | 10 to 100 nM
C[C@H]1C[C@@H](Oc2ccnc(COc3ccc(F)cc3F)n2)CCN1Cc1nc2ccc(C(=O)O)cc2n1C[C@H]1CCO1 [Compound 562, 2-{[(2S,4S)-4-({2-[(2,4-difluorophenoxy)methyl]pyrimi-din-4-yl}oxy)-2-methylpiperi-din-1-yl]methyl}-1-{[(2R)-oxe-tan-2-yl]methyl}-1H-1,3-benzo-diazole-6-carboxylic acid] | 0.1 to 1 nM
C[C@H](Cn1c(CN2CC[C@H](Oc3ccnc(COc4ccc(F)cc4F)n3)C[C@@H]2C)nc2ccc(C(=O)O)cc21)OCC(F)(F)F [Compound 594, 2-{[(2S,4S)-4-({2-[(2,4-Difluorophenoxy)methyl]pyrimidin-4-yl}oxy)-2-methylpiperidin-1-yl]methyl}-1-[(2R)-2-(2,2,2-trifluoroethoxy)propyl]-1H-1,3-benzodiazole-6-carboxylic acid] | 1 to 10 nM

Further lines, results first:

EC50 | Structure (SMILES)
< 0.1 nM | N#Cc1ccc(OCc2nccc(O[C@H]3CC[C@H](Cc4nc5ccc(C(=O)O)cc5n4C[C@@H]4CCO4)CC3)n2)c(F)c1 [Compound 640, 1-{[(2S)-oxetan-2-yl]methyl}-2-{[(1r,4r)-4-({2-[(4-cyano-2-fluorophenoxy)methyl]pyrimidin-4-yl}oxy)cyclohexyl]methyl}-1H-1,3-benzodiazole-6-carboxylic acid]
0.1 to 1 nM | CC[C@H]1C[C@@H](Oc2ccnc(COc3ncc(Cl)cc3F)n2)CCN1Cc1nc2ccc(C(=O)O)cc2n1C[C@@H]1CCO1 [Compound 608, 2-{[(2S,4S)-4-[(2-{[(5-Chloro-3-fluoropyridin-2-yl)oxy]methyl}pyrimidin-4-yl)oxy]-2-ethylpiperidin-1-yl]methyl}-1-[(oxetan-2-yl)methyl]-1H-1,3-benzodiazole-6-carboxylic acid]
< 0.1 nM | C[C@H]1C[C@@H](Oc2ccnc(COc3ccc(F)cc3C#N)n2)CCN1Cc1nc2ccc(C(=O)O)cc2n1CCOCC(F)(F)F [Compound 601, 2-{[(2S,4S)-4-({2-[(2-cyano-4-fluorophenoxy)methyl]pyrimidin-4-yl}oxy)-2-methylpiperidin-1-yl]methyl}-1-[2-(2,2,2-trifluoroethoxy)ethyl]-1H-1,3-benzodiazole-6-carboxylic acid]
